Experimental data published in article PMC12410356 (International Journal for Parasitology: Drugs and Drug …, 2025).

What was measured:
[1] = test system: E. multilocularis metacestode vesicles; test: Metacestode vesicle viability assay (ATP, CellTiter-Glo); format: cell-based, Echinococcus multilocularis
Description: Viability was assessed after 12 days using the same metacestode vesicles as for the PGI release assay. Triton X-100 was added to each well to a final concentration of 0.1 %. Subsequently the metacestode vesicles were broken mechanically and 50 μL of the supernatant was mixed with 50 μL of CellTiter-Glo® buffer (Promega, Dübendorf, Switzerland). Measurements were performed on a HIDEX Sense microplate reader.

[2] = test system: E. multilocularis metacestode vesicles; test: Phosphoglucose isomerase (PGI) release assay (damage-marker release) on metacestode vesicles; format: cell-based, Echinococcus multilocularis; conditions: 10 μM; for PGI d5 (relative PGI release): 5 days; for PGI d12 (relative PGI release): 12 days
Description: In order to quantify the drug-induced damage on whole metacestode vesicles, phosphoglucose isomerase (PGI) assay was performed as described previously ([Stadelmann et al., 2010]) with few adaptations published recently ([Kaethner et al., 2023]). In short, 8 to 12 weeks-old metacestode vesicles were purified using 2 % sucrose with subsequent washes in PBS. Metacestode vesicles were diluted in two volumes of DMEM without phenol red containing penicillin (100 U/mL) and streptomycin (100 μg/mL). […] 0.1 % DMSO was used as a negative solvent control and 0.1 % Triton X-100 was used as a positive total damage control. Metacestode vesicles were incubated under a humid, 5 % CO2 atmosphere at 37 °C. After five and twelve days, supernatant was taken and pictures were made using a Nikon SMZ18 stereo microscope (Nikon, Basel, Switzerland) at 7.5 × magnification. PGI activity in the supernatants was measured on a HIDEX Sense microplate reader (Hidex, Turku, Finland). The corresponding values of the DMSO controls were subtracted from the values of the compounds and then PGI activity was calculated relative to 0.1 % Triton X-100. […] IC50 values were calculated applying the 3 parameter Weibull type 1 in R for each of the three independent experiments ([Ritler et al., 2020]).

[3] = overview screen, 10 μM, singlets, 12 days, relative to DMSO control
[4] = overview screen, singlets, relative to 0.1 % Triton X-100, DMSO subtracted
[5] = confirmation screen, triplicates, mean

SMILES	Viability d12 (relative viability) [1, 3]	PGI d5 (relative PGI release) [2, 4]	PGI d12 (relative PGI release) [2, 4]	Viability d12 (relative viability) ([1]; confirmation screen, 10 μM, triplicates, mean, 12 days)	PGI d5 (relative PGI release) [2, 5]	PGI d12 (relative PGI release) [2, 5]	Viability d12 (relative viability) ([1]; 10 µM)
COc1cc(Cc2cnc(N)nc2N)cc(OC)c1OC [MMV000028]	71.724%	-3.0237%	-24.4435%	–	–	–	–
COc1cc(C)c2c(Oc3cccc(C(F)(F)F)c3)c(OC)cc(NC(C)CCCN)c2n1.O=C(O)CCC(=O)O (stereo not drawn) [MMV000043]	100.948%	8.8572%	-12.8411%	–	–	–	–
CCC[C@@H]1C[C@@H](C(=O)N[C@@H]([C@H]2O[C@H](SC)[C@H](O)[C@@H](O)[C@H]2O)[C@H](C)Cl)N(C)C1.Cl [MMV000051]	23.7506%	15.4885%	58.7211%	61.99%	0.38%	-0.19%	–
CONC(=N)c1ccc(-c2ccc(-c3ccc(C(=N)NOC)cc3)o2)cc1 [MMV000059]	226.694%	-1.411%	-24.9567%	–	–	–	–
CCN(CC)CCn1c(=N)n(CC(O)COc2ccc(Cl)cc2Cl)c2ccccc21 (stereo not drawn) [MMV000725]	72.9764%	-2.18%	-13.7901%	–	–	–	–
O=C(c1ccccc1)N1CCN(c2ccccc2NC(=O)C(Cl)(Cl)Cl)CC1 [MMV001014]	104.308%	0.3132%	-4.23%	–	–	–	–
Cc1c(OCC(F)(F)F)ccnc1C[S+]([O-])c1nc2ccccc2[nH]1 (stereo not drawn) [MMV001438]	96.7343%	1.578%	-2.884%	–	–	–	–
CCCCc1ccc(C(=O)O)nc1 [MMV001726]	162.188%	-0.06574%	-20.229%	–	–	–	–
CC1=C(/C=C/C(C)=C/C=C/C(C)=C/C(=O)Nc2ccc(O)cc2)C(C)(C)CCC1 [MMV001793]	54.0144%	0.1304%	-19.3598%	–	–	–	–
Clc1ccc(Cn2c(CN3CCCC3)nc3ccccc32)cc1 [MMV002015]	–	-0.9034%	-18.1648%	–	–	–	85.4319%
NNC(=O)c1ccncc1 [MMV002169]	113.159%	1.814%	-1%	–	–	–	–
Cc1onc(-c2ccccc2)c1-c1ccc(S(N)(=O)=O)cc1 [MMV002260]	84.2251%	0.1005%	-4.614%	–	–	–	–
OC(Cn1cncn1)(Cn1cncn1)c1ccc(F)cc1F [MMV002337]	76.1493%	-1.63%	-24.335%	–	–	–	–
CCn1cc(C(=O)O)c(=O)c2cc(F)c(N3CCNC(C)C3)c(F)c21.Cl (stereo not drawn) [MMV002350]	–	0.8503%	0.3517%	–	–	–	92.559%
C[C@@H]1O[C@@H]1P(=O)(O)O [MMV002354]	22.2102%	4.505%	-11.1824%	–	–	–	–
NC[C@H]1O[C@H](O[C@H]2[C@H](O)[C@@H](O[C@H]3O[C@H](CO)[C@@H](O)[C@H](N)[C@H]3O)[C@H](N)C[C@@H]2N)[C@H](N)C[C@@H]1O [MMV002459]	35.1523%	-1.087%	-12.65%	–	–	–	–
CSc1ccc2c(c1)C(N1CCN(C)CC1)Cc1ccccc1S2 (stereo not drawn) [MMV002505]	82.0463%	0.4968%	-0.02837%	–	–	–	–
CC[C@@H]1C(=O)OC[C@@H]1Cc1cncn1C.Cl [MMV002516]	84.666%	-2.121%	-7.265%	–	–	–	–
CO/N=C(\C(=O)N[C@@H]1C(=O)N2C(C(=O)OCOC(=O)C(C)(C)C)=C(/C=C\c3scnc3C)CS[C@H]12)c1csc(N)n1 [MMV002560]	19.8723%	-2.539%	-11.7788%	–	–	–	–
